# Measured values reported in patent publication US11697646B2, “Triazole N-linked carbamoyl cyclohexyl acids as LPA antagonists” (BRISTOL-MYERS SQUIBB COMPANY, priority 2017, dated 2023).
# Target: T1, human LPA1 (Homo sapiens, UniProt Q92633)
# T1 construct: expressed in transfected cells; host or cells: Chinese hamster ovary (CHO) cells
# Assay: LPA1 functional antagonist assay (calcium flux)
# Format: cell-based
# Details: CHO cells overexpressing human LPA1; calcium flux induced by 10 nM LPA; read-out: hLPA1 IC50
# Experimental: The effectiveness of compounds of the present invention as LPA1 inhibitors can be determined in an LPA1 functional antagonist assay as follows:
# The cells were then equilibrated to room temperature for 30 minutes before the assay. […] IC50 values were determined by fitting data to a 4-parameter logistic equation (GraphPad Prism, San Diego Calif.).
# T1 sequence (Q92633 whole entry): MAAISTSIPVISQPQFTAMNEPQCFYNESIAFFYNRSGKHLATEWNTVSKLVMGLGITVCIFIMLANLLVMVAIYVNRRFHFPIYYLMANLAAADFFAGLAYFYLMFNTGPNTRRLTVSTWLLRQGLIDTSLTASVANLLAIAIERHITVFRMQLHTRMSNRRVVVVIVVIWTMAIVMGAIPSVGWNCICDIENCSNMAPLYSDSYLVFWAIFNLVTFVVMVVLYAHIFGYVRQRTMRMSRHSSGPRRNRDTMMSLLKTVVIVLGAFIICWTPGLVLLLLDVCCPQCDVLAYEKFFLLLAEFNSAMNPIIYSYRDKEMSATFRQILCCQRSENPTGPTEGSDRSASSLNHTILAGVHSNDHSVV
row,IC50 [nM],Structure (SMILES)
1,52,"Cc1nc(-c2nnn(C)c2NC(=O)OCC2CC2C)ccc1O[C@H]1CCC[C@H](C(=O)O)C1 (mixture of isomers) [Example 223, (1S,3S)-3((2-methyl-6-(1-methyl-5-((((2-methylcyclopropyl)methoxy)carbonyl)amino)-1H-1,2,3-triazol-4-yl)pyridin-3-yl)oxy)cyclohexane-1-carboxylic acid (mixture of cyclopropyl diastereomers)]"
2,34,CCCCCOC(=O)Nc1c(-c2ccc(O[C@H]3CCC[C@H](C(=O)O)C3)cn2)nnn1C [Example 88]
3,1830,"Cc1nc(-c2nnn(C)c2CCNC(=O)OC2CCCC2)ccc1O[C@H]1CCC[C@H](C(=O)O)C1 [Example 105, (1S,3S)-3-((6-(5-(2-(((cyclopentyl-oxy)carbonyl)amino)ethyl)-1-methyl-1H-1,2,3-triazol-4-yl)-2-methyl-pyridin-3-yl)oxy)cyclohexane-1-carboxylic acid]"
4,3,CCCCCOC(=O)NCc1c(-c2ccc(O[C@H]3CCC[C@H](C(=O)O)C3)c(C)n2)nnn1C [Example 23]
5,48,"Cc1nc(-c2nnn(C)c2CNC(=O)OCC2(C)CC2)ccc1O[C@H]1CCC[C@H](C(=O)O)C1 [Example 59, (1S,3S)-3-((2-methyl-6-(1-methyl-5-(((((1-methylcyclopropyl)methoxy)carbonyl)amino)methyl)-1H-1,2,3-triazol-4-yl)pyridin-3-yl)oxy)cyclohexane-1-carboxylic acid]"
6,166,"Cc1nc(-c2nnn(C)c2CN(C)C(=O)N(C)Cc2ccccc2)ccc1O[C@H]1CCC[C@H](C(=O)O)C1 [Example 115, (1S,3S)-3-((6-(5-((3-benzyl-1,3-dimethylureido)methyl)-1-methyl-1H-1,2,3-triazol-4-yl)-2-methyl-pyridin-3-yl)oxy)cyclohexane-1-carboxylic acid]"
7,525,"Cc1nc(-c2nnn(C)c2CCNC(=O)OCc2ccccc2)ccc1O[C@H]1CCC[C@H](C(=O)O)C1 [Example 106, (1S,3S)-3-((6-(5-(2-(((benzyloxy)carbonyl)amino)ethyl)-1-methyl-1H-1,2,3-triazol-4-yl)-2-methylpyridin-3-yl)oxy)cyclohexane-1-carboxylic acid]"
8,788,"CCCOC(=O)NCc1c(-c2ccc(O[C@H]3CCC[C@H](C(=O)O)C3)c(CC)n2)nnn1C [Example 42, (1S,3S)-3-((2-ethyl-6-(1-methyl-5-(((propoxycarbonyl)amino)methyl)-1H-1,2,3-triazol-4-yl)pyridin-3-yl)oxy)cyclohexane-1-carboxylic acid]"
9,112,"Cc1nc(-c2nnn(C)c2CNC(=O)OCC2(C)CC2)c(F)cc1O[C@H]1CCC[C@H](C(=O)O)C1 [Example 215, (1S,3S)-3-((5-fluoro-2-methyl-6-(1-methyl-5-(((((1-methylcyclopropyl)methoxy)carbonyl)amino)methyl)-1H-1,2,3-triazol-4-yl)pyridin-3-yl)oxy)cyclohexane-1-carboxylic acid]"

# Second part, the compound before the results:
row,Structure (SMILES),IC50 [nM]
1,"Cc1nc(-c2nnn(C)c2CNC(=O)OCc2cc(F)cc(F)c2)ccc1O[C@H]1CCC[C@H](C(=O)O)C1 [Example 8, (1S,3S)-3-((6-(5-(((((3,5-difluorobenzyl)oxy)carbonyl)amino)methyl)-1-methyl-1H-1,2,3-triazol-4-yl)-2-methylpyridin-3-yl)oxy)cyclohexane-1-carboxylic acid]",5
2,"CCCCOC(=O)NCc1c(-c2ccc(O[C@H]3CCC[C@H](C(=O)O)C3)c(C(F)F)n2)nnn1C [Example 100, (1S,3S)-3-((6-(5-(((butoxycarbonyl)amino)methyl)-1-methyl-1H-1,2,3-triazol-4-yl)-2-(difluoromethyl)pyridin-3-yl)oxy)cyclohexane-1-carboxylic acid]",39
3,Cc1nc(-c2nnn(C)c2CNC(=O)OC2CCCC2)ccc1O[C@H]1CCC[C@H](C(=O)O)C1 [Example 28],18
4,"Cc1cccc(COC(=O)NCc2c(-c3ccc(O[C@H]4CCC[C@H](C(=O)O)C4)c(C)n3)nnn2C)c1 [Example 19, (1S,3S)-3-((2-methyl-6-(1-methyl-5-(((((3-methylbenzyl)oxy)carbonyl)amino)methyl)-1H-1,2,3-triazol-4-yl)pyridin-3-yl)oxy)cyclohexane-1-carboxylic acid]",4
5,"Cc1nc(-c2nnn(C)c2CNC(=O)N(C)C(C)C(C)C)ccc1O[C@H]1CCC[C@H](C(=O)O)C1 (single isomer, unassigned) [Example 125]",1210
6,"C[C@@H](OC(=O)Nc1c(-c2ccc(O[C@H]3CCC[C@H](C(=O)O)C3)cn2)nnn1C)c1ccccc1 [Example 91, (1S,3S)-3-((6-(1-methyl-5-((((R)-1-phenylethoxy)carbonyl)amino)-1H-1,2,3-triazol-4-yl)pyridin-3-yl)oxy)cyclohexane-1-carboxylic acid]",35
7,"Cc1nc(-c2nnn(C)c2CNC(=O)C(C)(C)Oc2ccccc2)ccc1O[C@H]1CCC[C@H](C(=O)O)C1 [Example 234, (1S,3S)-3-((2-methyl-6-(1-methyl-5-((2-methyl-2-phenoxypropanamido)methyl)-1H-1,2,3-triazol-4-yl)pyridin-3-yl)oxy)cyclohexane-1-carboxylic acid]",392
8,"Cc1nc(-c2nnn(C)c2NC(=O)N[C@H](C)c2ccccc2)ccc1O[C@H]1CCC[C@H](C(=O)O)C1 [Example 136, (1S,3S)-3-((2-methyl-6-(1-methyl-5-(3-((R)-1-phenylethyl)ureido)-1H-1,2,3-triazol-4-yl)pyridin-3-yl)oxy) cyclohexane-1-carboxylic acid]",103
9,"Cc1nc(-c2nnn(C)c2NC(=O)OCC(C)C)c(F)cc1O[C@H]1CCC[C@H](C(=O)O)C1 [Example 219, (1S,3S)-3-((5-fluoro-6-(5-((isobutoxycarbonyl)amino)-1-methyl-1H-1,2,3-triazol-4-yl)-2-methylpyridin-3-yl)oxy)cyclohexane-1-carboxylic acid]",152
10,"Cc1nc(-c2nnn(C)c2NC(=O)OC2CC3(CC3)C2)ccc1O[C@H]1CCC[C@H](C(=O)O)C1 [Example 225, (1S,3S)-3-((2-methyl-6-(1-methyl-5-(((spiro[2.3]hexan-5-yloxy)carbonyl)amino)-1H-1,2,3-triazol-4-yl)pyridin-3-yl)oxy)cyclohexane-1-carboxylic acid]",181
11,"CCCCCOC(=O)Nc1c(-c2ccc(O[C@H]3CCC[C@H](C(=O)O)C3)c(C)n2)nnn1C [Example 71, (1S,3S)-3-((2-methyl-6-(1-methyl-5-(((pentyloxy)carbonyl)amino)-1H-1,2,3-triazol-4-yl)pyridin-3-yl)oxy)cyclohexane-1-carboxylic acid]",6
12,"CCc1nc(-c2nnn(C)c2NC(=O)OCC(C)C)ccc1O[C@H]1CCC[C@H](C(=O)O)C1 [Example 230, (1S,3S)-3-{[2-ethyl-6-(1-methyl-5-{[(2-methylpropoxy)carbonyl]amino}-1H-1,2,3-triazol-4-yl)pyridin-3-yl]oxy}cyclohexane-1-carboxylic acid]",17
13,"Cc1nc(-c2nnn(C)c2CNC(=O)N(C)[C@@H](C)c2ccccc2)ccc1O[C@H]1CCC[C@H](C(=O)O)C1 [Example 132, (1S,3S)-3-((2-methyl-6-(1-methyl-5-((3-methyl-3-((S)-1-phenylethyl)ureido)methyl)-1H-1,2,3-triazol-4-yl)pyridin-3-yl)oxy)cyclohexane-1-carboxylic acid]",276

# Same assay, conditions: human LPA1 functional antagonist assay; read-out: hLPA1 IC50
row,IC50 [nM],Structure (SMILES)
1,92,"Cc1nc(-c2nnn(C)c2CNC(=O)O[C@H](C)C(C)C)ccc1O[C@H]1CCC[C@H](C(=O)O)C1 [Example 170, (1S,3S)-3-((2-methyl-6-(1-methyl-5-((((((R)-3-methylbutan-2-yl)oxy)carbonyl)amino)methyl)-1H-1,2,3-triazol-4-yl)pyridin-3-yl)oxy)cyclohexane-1-carboxylic acid]"
2,76,"CCC[C@@H](C)OC(=O)NCc1c(-c2ccc(O[C@H]3CCC[C@H](C(=O)O)C3)c(C)n2)nnn1C [Example 171, (1S,3S)-3-((2-methyl-6-(1-methyl-5-((((((R)-pentan-2-yl)oxy)carbonyl)amino)methyl)-1H-1,2,3-triazol-4-yl)pyridin-3-yl)oxy)cyclohexane-1-carboxylic acid]"
3,96,"Cc1nc(-c2nnn(C)c2CNC(=O)OCCC(F)(F)F)ccc1O[C@H]1CCC[C@H](C(=O)O)C1 [Example 181, (1S,3S)-3-((2-methyl-6-(1-methyl-5-((((3,3,3-trifluoropropoxy)carbonyl)amino)methyl)-1H-1,2,3-triazol-4-yl)pyridin-3-yl)oxy)cyclohexane-1-carboxylic acid]"
4,106,"Cc1nc(-c2nnn(C)c2CNC(=O)O[C@@H](C)C2CC2)ccc1O[C@H]1CCC[C@H](C(=O)O)C1 [Example 176, (1S,3S)-3-((6-(5-(((((S)-1-cyclo-propylethoxy)carbonyl)amino)methyl)-1-methyl-1H-1,2,3-triazol-4-yl)-2-methylpyridin-3-yl)oxy)cyclo-hexane-1-carboxylic acid]"

# Further lines, the compound ahead of its results:
row,Structure (SMILES),IC50 [nM]
1,"Cc1nc(-c2nnn(C)c2CNC(=O)OCCCCC(F)(F)F)ccc1O[C@H]1CCC[C@H](C(=O)O)C1 [Example 166, (1S,3S)-3-((2-methyl-6-(1-methyl-5-(((((5,5,5-trifluoropentyl)oxy)carbonyl)amino)methyl)-1H-1,2,3-triazol-4-yl)pyridin-3-yl)oxy)cyclohexane-1-carboxylic acid]",121
2,"Cc1nc(-c2nnn(C)c2CNC(=O)OCCCC(F)(F)F)ccc1O[C@H]1CCC[C@H](C(=O)O)C1 [Example 169, (1S,3S)-3-((2-methyl-6-(1-methyl-5-((((4,4,4-trifluorobutoxy)carbonyl)amino)methyl)-1H-1,2,3-triazol-4-yl)pyridin-3-yl)oxy)cyclohexane-1-carboxylic acid]",55
3,"Cc1nc(-c2nnn(C)c2CNC(=O)OCC(C)C2CC2)ccc1O[C@H]1CCC[C@H](C(=O)O)C1 (stereo partly drawn) [Example 184, (1S,3S)-3-((6-(5-((((2-cyclopropylpropoxy)carbonyl)amino)methyl)-1-methyl-1H-1,2,3-triazol-4-yl)-2-methylpyridin-3-yl)oxy)cyclo-hexane-1-carboxylic acid]",41
